Measurements: ChEMBL document CHEMBL1201862, “PubChem BioAssay data set” (2004)
Active and inactive are the calls of the source.

What was measured:
[1] = target: Dual specificity protein phosphatase 3 (Homo sapiens, UniProt P51452); assay: VHR phosphatase inhibition, dose response, selectivity assay for STEP inhibitor project, biochemical (AID 602374); assay type: functional; conditions: read-out: IC50_Mean
[2] = target: T1, Caspase-6 (Homo sapiens, UniProt P55212); assay: human caspase-6 inhibitors, dose response, biochemical, VEID-R110 fluorescence, cherry-pick (AID 720632)
T1 sequence (P55212 whole entry): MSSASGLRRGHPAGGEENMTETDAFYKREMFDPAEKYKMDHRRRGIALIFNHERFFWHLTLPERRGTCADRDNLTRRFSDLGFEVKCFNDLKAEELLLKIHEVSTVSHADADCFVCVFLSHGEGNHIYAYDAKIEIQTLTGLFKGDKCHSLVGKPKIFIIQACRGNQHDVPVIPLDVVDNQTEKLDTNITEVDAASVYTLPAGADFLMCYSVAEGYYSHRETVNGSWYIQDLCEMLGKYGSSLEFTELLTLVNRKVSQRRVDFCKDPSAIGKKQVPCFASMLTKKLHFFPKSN

[3] = target: Tyrosine-protein phosphatase non-receptor type 5 (Homo sapiens, UniProt P54829); assay: STEP phosphatase inhibitors, confirmation, biochemical, fluorescence intensity, uHTS hits (AID 602372); assay type: functional; conditions: read-out: IC50_Mean
[4] = target: Tyrosine-protein phosphatase non-receptor type 11 (Homo sapiens, UniProt Q06124); assay: SHP2 phosphatase inhibition, dose response, selectivity assay for STEP inhibitor project, biochemical (AID 602367); assay type: functional; conditions: read-out: IC50_Mean
[5] = target: Potassium voltage-gated channel subfamily KQT member 2 (Rattus norvegicus, UniProt O88943); assay: KCNQ2 potassium channel inhibitors, dose response, cell-based, automated electrophysiology, set II, rat KCNQ2 (AID 588637); assay type: functional
[6] = target: T2, Low molecular weight phosphotyrosine protein phosphatase (Homo sapiens, UniProt P24666); assay type: functional; conditions: read-out: IC50_Mean;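 note: Dose-response confirmation assay measuring inhibition of LMPTP enzyme activity by fluorescence intensity read-out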
T2 sequence (P24666 whole entry): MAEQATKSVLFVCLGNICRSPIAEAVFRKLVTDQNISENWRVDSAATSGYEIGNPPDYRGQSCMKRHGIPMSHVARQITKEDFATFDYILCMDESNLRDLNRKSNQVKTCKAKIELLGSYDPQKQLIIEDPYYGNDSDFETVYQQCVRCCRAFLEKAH

[7] = target: T3, Histone-lysine N-methyltransferase NSD2 (Homo sapiens, UniProt O96028); assay type: biochemical
T3 sequence (O96028 whole entry): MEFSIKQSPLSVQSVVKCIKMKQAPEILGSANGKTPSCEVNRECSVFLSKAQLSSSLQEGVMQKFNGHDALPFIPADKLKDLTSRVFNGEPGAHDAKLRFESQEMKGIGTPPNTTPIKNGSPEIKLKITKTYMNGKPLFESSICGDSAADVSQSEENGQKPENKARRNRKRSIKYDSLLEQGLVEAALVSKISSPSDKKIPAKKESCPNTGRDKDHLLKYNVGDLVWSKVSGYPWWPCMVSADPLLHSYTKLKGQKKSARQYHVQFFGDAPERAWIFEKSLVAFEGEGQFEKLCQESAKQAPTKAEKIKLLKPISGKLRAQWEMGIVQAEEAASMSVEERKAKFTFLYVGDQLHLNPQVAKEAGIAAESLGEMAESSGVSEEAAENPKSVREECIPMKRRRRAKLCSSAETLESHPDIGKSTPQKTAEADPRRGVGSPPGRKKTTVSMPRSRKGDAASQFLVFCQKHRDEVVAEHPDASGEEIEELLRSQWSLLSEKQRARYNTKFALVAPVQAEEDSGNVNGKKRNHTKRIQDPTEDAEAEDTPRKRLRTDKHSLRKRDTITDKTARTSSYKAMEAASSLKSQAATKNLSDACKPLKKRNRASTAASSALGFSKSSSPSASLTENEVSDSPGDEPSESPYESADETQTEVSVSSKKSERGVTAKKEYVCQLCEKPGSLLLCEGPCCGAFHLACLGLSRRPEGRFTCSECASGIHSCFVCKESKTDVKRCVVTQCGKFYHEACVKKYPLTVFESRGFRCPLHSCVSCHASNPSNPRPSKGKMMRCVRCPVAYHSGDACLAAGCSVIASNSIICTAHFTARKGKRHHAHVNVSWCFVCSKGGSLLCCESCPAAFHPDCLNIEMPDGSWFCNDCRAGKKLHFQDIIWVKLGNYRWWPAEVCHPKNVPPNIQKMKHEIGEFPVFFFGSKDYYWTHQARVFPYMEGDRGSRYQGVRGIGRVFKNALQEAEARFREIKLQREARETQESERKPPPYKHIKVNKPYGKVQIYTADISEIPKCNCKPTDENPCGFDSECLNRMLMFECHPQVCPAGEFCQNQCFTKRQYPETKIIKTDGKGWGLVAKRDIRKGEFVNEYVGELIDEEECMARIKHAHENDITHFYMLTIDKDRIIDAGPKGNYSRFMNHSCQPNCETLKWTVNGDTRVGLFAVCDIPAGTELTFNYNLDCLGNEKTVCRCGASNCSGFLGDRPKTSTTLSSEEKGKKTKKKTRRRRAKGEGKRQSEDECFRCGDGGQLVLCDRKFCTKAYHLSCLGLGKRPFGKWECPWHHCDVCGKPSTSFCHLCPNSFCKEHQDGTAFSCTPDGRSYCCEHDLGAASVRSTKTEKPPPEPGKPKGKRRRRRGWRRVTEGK

[8] = target: ATP-dependent molecular chaperone HSP82 (Candida albicans (strain WO-1) (Yeast), UniProt C4YTQ8); assay: loss of DOC-induced GRE-beta-galactosidase reporter signal, dose response, Hsp90 inhibitor project, S. cerevisiae, luminescence (AID 2400); assay type: functional, cell-based;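 note: beta-galactosidase luminescence from glucocorticoid response element reporter as proxy for Hsp90 function; inhibitor potency where signal loss means Hsp90 inhibition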
[9] = NIH-3T3 fibroblast cytotoxicity, dose response, cytotoxicity control, cell-based, fluorescence, Alamar Blue, secondary assay (AID 2327); assay type: functional;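 note: NIH-3T3 mouse fibroblasts cultured with fluconazole at 8 µg/mL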
[10] = C. albicans growth with fluconazole, confirmation, fluorescence, retest (AID 2467); assay type: functional, cell-based
[11] = target: T4, Serine/threonine-protein phosphatase (Candida dubliniensis (strain CD36 / CBS 7987 / NCPF 3949 / NRRLY-17841) (Yeast), UniProt B9W6M3); assay: calcineurin pathway inhibitors in yeast reporter, dose response, S. cerevisiae, CDRE-lacZ, luminescence, secondary (AID 2388); assay type: functional, cell-based;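 note: yeast reporter cells carrying a calcineurin-responsive lacZ construct stimulated with calcium chloride; luminescent beta-galactosidase reporter signal in whole cells rather than isolated phosphatase activity; potency for inhibition where a drop in reporter signal means calcineurin blockade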
T4 sequence (B9W6M3 whole entry): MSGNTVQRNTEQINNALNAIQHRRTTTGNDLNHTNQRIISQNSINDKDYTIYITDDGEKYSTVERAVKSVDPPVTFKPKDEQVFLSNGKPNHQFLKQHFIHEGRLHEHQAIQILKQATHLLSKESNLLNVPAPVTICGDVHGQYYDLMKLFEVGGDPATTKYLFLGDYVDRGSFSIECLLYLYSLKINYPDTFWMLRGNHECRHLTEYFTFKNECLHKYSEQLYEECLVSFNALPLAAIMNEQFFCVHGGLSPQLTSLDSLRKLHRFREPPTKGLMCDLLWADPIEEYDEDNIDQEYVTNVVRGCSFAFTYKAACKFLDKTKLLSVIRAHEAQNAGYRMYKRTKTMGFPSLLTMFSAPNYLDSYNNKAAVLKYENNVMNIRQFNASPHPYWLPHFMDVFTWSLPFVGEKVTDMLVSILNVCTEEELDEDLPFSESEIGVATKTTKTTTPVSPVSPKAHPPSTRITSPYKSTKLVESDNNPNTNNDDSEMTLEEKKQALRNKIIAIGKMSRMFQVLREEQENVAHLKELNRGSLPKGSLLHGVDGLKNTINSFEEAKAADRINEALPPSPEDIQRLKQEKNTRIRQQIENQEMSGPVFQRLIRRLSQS

[12] = target: Melanocortin receptor 4 (Homo sapiens, UniProt P32245); assay type: functional, cell-based;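 note: Cell-based assay with luminescence read-out, confirmatory dose-response testing for agonist activity of biased ligands at MC4R; human U2OS cells with tagged receptor and beta-arrestin; potency of agonists that increase receptor coupling to beta-arrestin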
[13] = target: T5, High affinity choline transporter 1 (Homo sapiens, UniProt Q9GZV3); assay: CHT inhibitors, dose response, cell-based, 10-point CRC, membrane potential dye (AID 588401); assay type: functional;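 note: membrane potential dye fluorescence of choline-evoked depolarization via CHT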
T5 sequence (Q9GZV3 whole entry): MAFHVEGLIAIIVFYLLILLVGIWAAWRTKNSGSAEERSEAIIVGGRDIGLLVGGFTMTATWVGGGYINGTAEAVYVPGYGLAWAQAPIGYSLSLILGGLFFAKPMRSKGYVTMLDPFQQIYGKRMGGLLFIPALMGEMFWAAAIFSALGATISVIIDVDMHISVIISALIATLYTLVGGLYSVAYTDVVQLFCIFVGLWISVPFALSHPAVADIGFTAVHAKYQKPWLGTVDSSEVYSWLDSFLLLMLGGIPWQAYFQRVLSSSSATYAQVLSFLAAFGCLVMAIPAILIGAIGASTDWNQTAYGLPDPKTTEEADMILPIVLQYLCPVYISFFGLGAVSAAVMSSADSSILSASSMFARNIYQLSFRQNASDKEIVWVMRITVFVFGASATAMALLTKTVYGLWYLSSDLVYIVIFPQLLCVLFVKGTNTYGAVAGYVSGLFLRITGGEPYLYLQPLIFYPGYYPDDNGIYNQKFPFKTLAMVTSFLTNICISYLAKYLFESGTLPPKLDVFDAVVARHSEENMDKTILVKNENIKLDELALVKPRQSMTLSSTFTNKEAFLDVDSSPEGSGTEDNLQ

[14] = target: T5, High affinity choline transporter 1; assay: CHT inhibitors, dose response, cell-based, 5-point CRC, membrane potential dye (AID 504840); assay type: functional
[15] = target: T5, High affinity choline transporter 1; assay: inhibitors of CHT choline uptake, dose response, cell-based, 3H-choline uptake, CHT LV-AA trafficking mutant, CRC (AID 602208); assay type: functional
[16] = target: T6, Apoptotic protease-activating factor 1 (Homo sapiens, UniProt O14727); assay: SAR analysis of small molecule Activators of Apaf-1 in a Fluorescent assay.; assay type: functional; conditions: read-out: EC50_Mean;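 note: caspase-3 cleavage of fluorogenic Rh110 DEVD substrate downstream of apoptosome activation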
T6 sequence (O14727 whole entry): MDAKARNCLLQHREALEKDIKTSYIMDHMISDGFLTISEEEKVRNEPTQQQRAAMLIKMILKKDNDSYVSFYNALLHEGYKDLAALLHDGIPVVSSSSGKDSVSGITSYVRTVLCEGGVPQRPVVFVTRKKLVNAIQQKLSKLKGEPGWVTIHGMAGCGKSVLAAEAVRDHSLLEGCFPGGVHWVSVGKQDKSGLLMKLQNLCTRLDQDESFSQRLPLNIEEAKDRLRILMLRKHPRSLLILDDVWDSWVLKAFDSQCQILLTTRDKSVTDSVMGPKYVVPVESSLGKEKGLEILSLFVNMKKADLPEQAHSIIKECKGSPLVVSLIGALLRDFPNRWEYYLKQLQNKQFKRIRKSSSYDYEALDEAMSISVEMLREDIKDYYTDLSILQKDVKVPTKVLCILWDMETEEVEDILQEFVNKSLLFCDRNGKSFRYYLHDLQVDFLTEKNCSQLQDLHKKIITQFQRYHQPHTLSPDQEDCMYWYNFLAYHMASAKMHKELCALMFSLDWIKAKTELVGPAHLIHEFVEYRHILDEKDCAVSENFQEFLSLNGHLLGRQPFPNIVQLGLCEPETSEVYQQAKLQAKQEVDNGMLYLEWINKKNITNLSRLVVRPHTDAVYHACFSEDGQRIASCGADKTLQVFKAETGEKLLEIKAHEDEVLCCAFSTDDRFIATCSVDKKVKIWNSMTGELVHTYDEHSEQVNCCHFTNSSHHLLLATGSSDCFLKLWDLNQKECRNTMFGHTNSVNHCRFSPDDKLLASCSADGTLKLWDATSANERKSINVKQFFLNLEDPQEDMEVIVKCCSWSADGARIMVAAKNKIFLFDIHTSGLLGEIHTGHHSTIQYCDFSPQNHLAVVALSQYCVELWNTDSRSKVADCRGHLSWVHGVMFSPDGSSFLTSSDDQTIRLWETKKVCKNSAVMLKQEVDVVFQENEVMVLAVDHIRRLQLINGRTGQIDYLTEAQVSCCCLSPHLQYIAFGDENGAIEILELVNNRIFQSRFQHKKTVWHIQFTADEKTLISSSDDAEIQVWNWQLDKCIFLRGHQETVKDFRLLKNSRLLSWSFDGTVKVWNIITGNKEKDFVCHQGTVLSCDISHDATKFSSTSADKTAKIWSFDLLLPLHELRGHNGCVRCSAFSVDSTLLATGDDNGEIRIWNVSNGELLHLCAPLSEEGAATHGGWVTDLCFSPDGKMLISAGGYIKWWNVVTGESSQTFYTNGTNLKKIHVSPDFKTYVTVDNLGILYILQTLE

[17] = target: Ras and Rab interactor 1/Tyrosine-protein kinase ABL1 (Homo sapiens, UniProt P00519+Q13671); assay type: functional;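 note: biochemical TR-FRET dose-response test measuring inhibition of binding between Rin1 and Abl proteins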
Ras and Rab interactor 1/Tyrosine-protein kinase ABL1, sequence (P00519 whole entry): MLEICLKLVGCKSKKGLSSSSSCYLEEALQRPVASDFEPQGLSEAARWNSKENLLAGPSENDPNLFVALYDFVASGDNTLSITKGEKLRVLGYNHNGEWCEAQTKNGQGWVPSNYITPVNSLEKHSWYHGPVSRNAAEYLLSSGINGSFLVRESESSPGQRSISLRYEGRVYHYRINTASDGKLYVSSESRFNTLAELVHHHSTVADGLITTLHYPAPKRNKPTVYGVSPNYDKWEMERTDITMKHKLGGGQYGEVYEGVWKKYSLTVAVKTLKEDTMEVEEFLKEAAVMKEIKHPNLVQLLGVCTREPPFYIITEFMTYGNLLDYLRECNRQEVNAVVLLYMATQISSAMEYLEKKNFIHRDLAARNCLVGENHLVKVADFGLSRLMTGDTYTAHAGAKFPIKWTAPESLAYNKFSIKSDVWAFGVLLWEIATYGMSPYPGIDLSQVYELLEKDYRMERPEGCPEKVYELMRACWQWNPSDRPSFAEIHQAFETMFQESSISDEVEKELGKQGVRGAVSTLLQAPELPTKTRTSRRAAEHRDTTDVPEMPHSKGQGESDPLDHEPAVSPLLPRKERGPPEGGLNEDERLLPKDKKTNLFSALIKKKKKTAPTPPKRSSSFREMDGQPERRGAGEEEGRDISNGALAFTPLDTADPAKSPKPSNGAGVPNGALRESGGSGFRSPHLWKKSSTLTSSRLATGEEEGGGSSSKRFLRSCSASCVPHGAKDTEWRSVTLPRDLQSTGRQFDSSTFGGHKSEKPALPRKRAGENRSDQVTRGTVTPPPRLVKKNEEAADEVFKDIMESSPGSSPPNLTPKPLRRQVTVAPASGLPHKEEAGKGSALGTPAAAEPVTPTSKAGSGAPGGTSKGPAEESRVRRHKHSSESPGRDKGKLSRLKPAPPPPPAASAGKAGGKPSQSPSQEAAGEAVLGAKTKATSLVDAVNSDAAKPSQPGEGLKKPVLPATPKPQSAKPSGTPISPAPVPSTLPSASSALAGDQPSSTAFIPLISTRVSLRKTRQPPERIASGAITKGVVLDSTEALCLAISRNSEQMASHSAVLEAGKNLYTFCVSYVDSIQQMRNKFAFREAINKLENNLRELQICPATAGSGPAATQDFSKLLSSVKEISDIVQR
Ras and Rab interactor 1/Tyrosine-protein kinase ABL1, sequence (Q13671 whole entry): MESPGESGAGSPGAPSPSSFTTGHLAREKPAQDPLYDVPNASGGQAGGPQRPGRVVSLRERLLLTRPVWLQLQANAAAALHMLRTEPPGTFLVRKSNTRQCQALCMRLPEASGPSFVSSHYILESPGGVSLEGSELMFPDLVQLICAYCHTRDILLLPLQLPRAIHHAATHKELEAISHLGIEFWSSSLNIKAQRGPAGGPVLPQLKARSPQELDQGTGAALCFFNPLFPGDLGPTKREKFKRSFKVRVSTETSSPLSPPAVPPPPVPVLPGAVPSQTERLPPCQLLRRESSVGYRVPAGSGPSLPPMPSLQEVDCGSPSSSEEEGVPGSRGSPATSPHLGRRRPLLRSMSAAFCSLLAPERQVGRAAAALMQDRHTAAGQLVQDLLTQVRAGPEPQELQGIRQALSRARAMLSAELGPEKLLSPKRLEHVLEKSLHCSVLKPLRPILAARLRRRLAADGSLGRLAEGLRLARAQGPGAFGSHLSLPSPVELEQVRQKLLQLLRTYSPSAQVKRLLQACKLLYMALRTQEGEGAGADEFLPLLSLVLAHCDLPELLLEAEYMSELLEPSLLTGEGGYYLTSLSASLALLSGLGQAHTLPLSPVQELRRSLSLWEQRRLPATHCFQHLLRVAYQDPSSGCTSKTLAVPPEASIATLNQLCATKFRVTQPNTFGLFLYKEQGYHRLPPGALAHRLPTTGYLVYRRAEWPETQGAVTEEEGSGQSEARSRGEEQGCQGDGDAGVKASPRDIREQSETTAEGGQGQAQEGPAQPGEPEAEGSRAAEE

Tyrosine-protein phosphatase non-receptor type 11, sequence (Q06124 whole entry): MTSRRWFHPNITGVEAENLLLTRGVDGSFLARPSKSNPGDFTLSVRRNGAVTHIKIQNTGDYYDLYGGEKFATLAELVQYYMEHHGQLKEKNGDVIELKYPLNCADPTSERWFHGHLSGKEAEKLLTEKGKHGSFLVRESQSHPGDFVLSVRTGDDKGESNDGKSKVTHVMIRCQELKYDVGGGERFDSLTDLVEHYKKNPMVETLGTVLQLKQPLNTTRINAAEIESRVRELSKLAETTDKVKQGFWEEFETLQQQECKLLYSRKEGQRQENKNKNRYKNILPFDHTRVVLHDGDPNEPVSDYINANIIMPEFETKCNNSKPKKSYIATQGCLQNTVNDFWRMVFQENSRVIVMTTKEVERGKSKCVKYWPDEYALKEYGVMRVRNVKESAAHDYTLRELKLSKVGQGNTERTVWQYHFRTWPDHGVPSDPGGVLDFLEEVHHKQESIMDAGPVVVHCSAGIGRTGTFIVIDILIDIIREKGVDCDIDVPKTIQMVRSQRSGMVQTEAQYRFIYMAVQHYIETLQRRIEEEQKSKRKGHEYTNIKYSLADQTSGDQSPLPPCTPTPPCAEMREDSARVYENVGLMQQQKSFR
Tyrosine-protein phosphatase non-receptor type 5, sequence (P54829 whole entry): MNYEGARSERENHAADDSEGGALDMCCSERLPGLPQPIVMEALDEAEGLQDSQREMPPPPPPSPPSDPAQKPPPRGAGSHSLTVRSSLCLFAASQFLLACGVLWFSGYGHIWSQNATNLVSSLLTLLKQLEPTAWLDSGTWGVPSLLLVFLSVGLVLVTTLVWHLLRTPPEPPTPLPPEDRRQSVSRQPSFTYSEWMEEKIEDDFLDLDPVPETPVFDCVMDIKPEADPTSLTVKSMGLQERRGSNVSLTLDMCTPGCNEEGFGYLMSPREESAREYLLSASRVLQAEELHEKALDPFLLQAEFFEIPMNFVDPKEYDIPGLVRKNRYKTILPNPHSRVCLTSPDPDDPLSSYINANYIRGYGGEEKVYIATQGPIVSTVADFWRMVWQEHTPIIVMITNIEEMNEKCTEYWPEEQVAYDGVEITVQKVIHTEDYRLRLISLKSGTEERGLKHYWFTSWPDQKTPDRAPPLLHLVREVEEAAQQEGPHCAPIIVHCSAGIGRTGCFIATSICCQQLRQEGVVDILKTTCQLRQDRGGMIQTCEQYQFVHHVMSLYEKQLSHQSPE
ATP-dependent molecular chaperone HSP82, sequence (C4YTQ8 whole entry): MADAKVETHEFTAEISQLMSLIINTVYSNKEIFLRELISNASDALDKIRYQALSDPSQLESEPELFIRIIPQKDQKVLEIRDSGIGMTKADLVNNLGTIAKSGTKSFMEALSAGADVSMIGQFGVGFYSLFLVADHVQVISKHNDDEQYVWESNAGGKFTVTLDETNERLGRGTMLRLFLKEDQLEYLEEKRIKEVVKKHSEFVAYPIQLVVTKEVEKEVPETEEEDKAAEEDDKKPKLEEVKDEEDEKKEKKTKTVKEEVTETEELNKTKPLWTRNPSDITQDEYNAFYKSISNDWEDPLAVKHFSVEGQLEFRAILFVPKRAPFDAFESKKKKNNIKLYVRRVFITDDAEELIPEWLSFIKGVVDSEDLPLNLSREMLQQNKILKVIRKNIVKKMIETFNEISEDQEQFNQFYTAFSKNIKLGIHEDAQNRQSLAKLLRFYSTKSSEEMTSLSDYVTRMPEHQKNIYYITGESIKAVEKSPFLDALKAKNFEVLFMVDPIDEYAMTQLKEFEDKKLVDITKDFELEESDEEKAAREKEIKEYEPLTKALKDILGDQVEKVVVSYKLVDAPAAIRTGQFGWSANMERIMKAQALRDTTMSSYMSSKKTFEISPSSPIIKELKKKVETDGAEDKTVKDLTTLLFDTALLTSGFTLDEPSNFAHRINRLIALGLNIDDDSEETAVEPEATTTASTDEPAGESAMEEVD
Potassium voltage-gated channel subfamily KQT member 2, sequence (O88943 whole entry): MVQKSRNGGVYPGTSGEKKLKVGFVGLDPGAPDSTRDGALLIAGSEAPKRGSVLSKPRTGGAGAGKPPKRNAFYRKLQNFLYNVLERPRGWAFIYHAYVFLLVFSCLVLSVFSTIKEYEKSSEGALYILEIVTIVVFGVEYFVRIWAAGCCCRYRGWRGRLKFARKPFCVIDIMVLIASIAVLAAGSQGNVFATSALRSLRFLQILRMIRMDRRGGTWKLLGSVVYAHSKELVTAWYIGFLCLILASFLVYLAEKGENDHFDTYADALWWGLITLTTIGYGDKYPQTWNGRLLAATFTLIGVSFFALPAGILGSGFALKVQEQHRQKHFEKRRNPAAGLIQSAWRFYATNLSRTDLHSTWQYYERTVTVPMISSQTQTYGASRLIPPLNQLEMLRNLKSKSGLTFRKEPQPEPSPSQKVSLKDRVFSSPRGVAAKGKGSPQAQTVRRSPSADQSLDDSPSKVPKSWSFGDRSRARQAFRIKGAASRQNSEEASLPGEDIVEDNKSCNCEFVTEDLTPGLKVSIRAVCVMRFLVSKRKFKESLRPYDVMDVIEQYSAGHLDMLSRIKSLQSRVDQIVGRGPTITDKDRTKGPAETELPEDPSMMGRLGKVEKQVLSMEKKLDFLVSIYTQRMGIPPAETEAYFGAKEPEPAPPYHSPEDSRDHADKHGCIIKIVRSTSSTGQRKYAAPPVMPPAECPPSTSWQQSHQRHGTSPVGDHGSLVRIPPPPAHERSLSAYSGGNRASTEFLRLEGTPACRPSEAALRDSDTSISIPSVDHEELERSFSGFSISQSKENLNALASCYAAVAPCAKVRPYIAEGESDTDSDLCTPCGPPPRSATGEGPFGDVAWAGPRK
Melanocortin receptor 4, sequence (P32245 whole entry): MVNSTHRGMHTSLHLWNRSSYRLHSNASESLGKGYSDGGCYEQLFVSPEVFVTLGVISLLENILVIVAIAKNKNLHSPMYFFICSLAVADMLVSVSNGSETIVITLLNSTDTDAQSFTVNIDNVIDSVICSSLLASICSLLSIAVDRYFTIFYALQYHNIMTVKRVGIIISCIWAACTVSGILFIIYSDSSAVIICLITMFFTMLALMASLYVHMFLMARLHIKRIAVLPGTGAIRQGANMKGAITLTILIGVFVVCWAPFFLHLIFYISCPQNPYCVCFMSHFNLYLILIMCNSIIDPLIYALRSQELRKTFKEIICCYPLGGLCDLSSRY

For `O=C(Nc1cccc2c(=O)[nH][nH]c(=O)c12)c1ccc([N+](=O)[O-])cc1`, which IC50 [1] is on record?
The IC50 was 4.92 µM (active).

And the AC50 [2]?
Its AC50 is 2.58 µM (active).

And the IC50 [3]?
The IC50 was 14.2 µM (active).

And the IC50 [4]?
Its IC50 is 3.01 µM (active).

For `CC1=C(C(=O)NC(C)c2ccc3c(c2)OCCO3)C2(CCC(C)CC2)OC1=O` (configuration not stated), which IC50 [5] is on record?
Its IC50 is 12 µM (active).

For `CCc1ccc(C=C2SC(=S)N(CCCC(=O)Nc3ccc(C(=O)O)cc3)C2=O)cc1`, which IC50 [6] is on record?
Its IC50 is 80 µM (inactive).

For `COc1ccc(OC)c(/C=C2\SC(=S)N(NS(=O)(=O)c3ccc(C)cc3)C2=O)c1`, which AC50 [7] is on record?
Its AC50 is 15.9 µM (active).

What about the EC50 [8] of the same compound?
Its EC50 is 5.2 µM (active).

And the EC50 [9]?
The EC50 was > 150 µM (inactive).

And the EC50 [10]?
Its EC50 is 0.832 µM (active).

And the EC50 [11]?
Its EC50 is > 180 µM (inactive).

For `COc1ccc(-c2cnc3c(NC(C)=O)cc(-c4ccccc4OC)cn23)cc1OC`, which EC50 [12] is on record?
The EC50 was > 89.2 µM (inactive).

Which IC50 [13] does the source give for `CC1CCC(NC(=O)c2cccc(S(=O)(=O)N3CCN(C)CC3)c2)CC1` (configuration not stated) here?
The IC50 was 2.05 µM (active).

And the IC50 [14]?
The IC50 was 4.17 µM (active).

What about the IC50 [15] of the same compound?
The IC50 was 4.68 µM (active).

For `O=C(O)c1cc(-c2cc(F)c(F)cc2F)[nH]n1`, which EC50 [16] is on record?
Its EC50 is > 100 µM (inactive).

With `O=C1CNC(=O)/C1=C\NC12CC3CC(CC(C3)C1)C2` as the compound, how does the IC50 [17] read?
Its IC50 is 21 µM (inactive).
